Source: patent publication US11357779B2 (G1 Therapeutics, Inc., priority 2018, dated 2022)
Read-outs that look alike come from different tables or passages of the source.

Assay: Plasma concentration versus time of Compound I and metabolite Compound III in patients dosed QD or BID with Form B of Compound II plus fulvestrant
Assay type: in vivo, human
Details: human, plasma, oral; for concentration at 0 h / concentration at 1 h / concentration at 2 h / concentration at 3 h / concentration at 4 h / concentration at 6 h / concentration at 8 h / concentration at 10 h / concentration at 12 h / concentration at 24 h: read-out: Compound I Concentration; for concentration at 8 day / concentration at 15 day / concentration at 22 day: Cohort 4, 500 mg QD of Form B; for concentration at 8 day: Day 8; for concentration at 15 day: Day 15; for concentration at 22 day: Day 22
Excerpt: Patients were enrolled into 1 of 2 parallel, independently operating, dose-escalation dosing cohorts with Form B of Compound II administered continuously either once daily (QD) or twice daily (BID) with food with fixed-dose fulvestrant (intramuscularly every 14 days for the first three injections and then every 28 days). Pre- or perimenopausal patients also received goserelin for the duration of study treatment. A […] agonist was started at least 28 days before the first dose of Form B, and those patients who were taking another LHRH agonist were switched to goserelin on Day 1. Patients were split into […] cohorts providing once a day (QD) dosing of 200 mg, 300 mg, 400 mg, 500 mg, or 650 mg of Form B, or twice a day (BID) dosing of 100 mg, 150 mg, or 200 mg of Form B. The second dose in BID cohorts was not administered in the evening until at least 12 hours after the initial morning dose of Form B. The dosing cohorts for Form B of Compound II are provided in Table 1.
Blood samples were collected at the following time points relative to the morning dose of Form B at Day 1 and at Day 29: pre-dose (0 hour) and 1, 2, 3, 4, 6, 8, 10, 12 (prior to the evening dose in the BID cohorts), and 24 (prior to the next day's morning dose) hours after dosing. A 5-minute time window was allowed for samples collected between the predose and 3 hours after Form B dosing. A 15-minute window was allowed for samples collected between 4 to 12 hours after Form B dosing. A 1-hour window was allowed for the sample collected 24 hours after Form B dosing. Blood samples for Compound I PK trough levels were collected pre-dose at Day 8, Day 15, and Day 22 prior to the morning administration of Compound I. Plasma concentrations of Compound I and its metabolite, Compound III, were measured using validated methods.
Analysis of plasma concentration versus time data for calculation of standard pharmacokinetic (PK) parameters following oral administration was conducted using Phoenix WinNonlin version 6.3 using actual blood sampling times.

[1] = 500 mg, read-out: Trough Compound I Concentration, Max
[2] = 500 mg, read-out: Trough Compound I Concentration, Median

**Q.** For `CC(C)N1CCN(c2ccc(Nc3ncc4cc5n(c4n3)C3(CCCCC3)CNC5=O)nc2)CC1` [Compound I, 2′-((5-(4-isopropylpiperazin-1-yl)pyridin-2-yl)amino)-7′,8′-dihydro-6′H-spiro[cyclohexane-1,9′-pyrazino[1′,2′:1,5]pyrrolo[2,3-d]pyrimidin]-6′-one], which concentration at 0 h (500 mg, 500 mg QD of Form B, Day 1, 0.0 h, Median) is on record?
**A.** Its concentration at 0 h is 0 ng/mL.

**Q.** And the concentration at 1 h (500 mg, 500 mg QD of Form B, Day 1, 1.0 h, Mean)?
**A.** Its concentration at 1 h is 10.4 ng/mL.

**Q.** What about the concentration at 1 h (500 mg, 500 mg QD of Form B, Day 1, 1.0 h, Median) of the same compound?
**A.** The concentration at 1 h was 10.2 ng/mL.

**Q.** What about the concentration at 2 h (500 mg, 500 mg QD of Form B, Day 1, 2.0 h, Mean) of the same compound?
**A.** The concentration at 2 h was 18.5 ng/mL.

**Q.** And the concentration at 2 h (500 mg, 500 mg QD of Form B, Day 1, 2.0 h, Median)?
**A.** The concentration at 2 h was 18.1 ng/mL.

**Q.** And the concentration at 3 h (500 mg, 500 mg QD of Form B, Day 1, 3.0 h, Mean)?
**A.** The concentration at 3 h was 34.3 ng/mL.

**Q.** And the concentration at 3 h (500 mg, 500 mg QD of Form B, Day 1, 3.0 h, Median)?
**A.** Its concentration at 3 h is 27.4 ng/mL.

**Q.** And the concentration at 4 h (500 mg, 500 mg QD of Form B, Day 1, 4.0 h, Mean)?
**A.** The concentration at 4 h was 35.4 ng/mL.

**Q.** What about the concentration at 4 h (500 mg, 500 mg QD of Form B, Day 1, 4.0 h, Median) of the same compound?
**A.** Its concentration at 4 h is 35.3 ng/mL.

**Q.** And the concentration at 6 h (500 mg, 500 mg QD of Form B, Day 1, 6.0 h, Mean)?
**A.** Its concentration at 6 h is 46.5 ng/mL.

**Q.** And the concentration at 6 h (500 mg, 500 mg QD of Form B, Day 1, 6.0 h, Median)?
**A.** The concentration at 6 h was 45.6 ng/mL.

**Q.** And the concentration at 8 h (500 mg, 500 mg QD of Form B, Day 1, 8.0 h, Mean)?
**A.** The concentration at 8 h was 40.6 ng/mL.

**Q.** And the concentration at 8 h (500 mg, 500 mg QD of Form B, Day 1, 8.0 h, Median)?
**A.** Its concentration at 8 h is 42.3 ng/mL.

**Q.** And the concentration at 10 h (500 mg, 500 mg QD of Form B, Day 1, 10.0 h, Mean)?
**A.** Its concentration at 10 h is 32.2 ng/mL.

**Q.** What about the concentration at 10 h (500 mg, 500 mg QD of Form B, Day 1, 10.0 h, Median) of the same compound?
**A.** Its concentration at 10 h is 33.4 ng/mL.

**Q.** What about the concentration at 12 h (500 mg, 500 mg QD of Form B, Day 1, 12.0 h, Mean) of the same compound?
**A.** Its concentration at 12 h is 27.8 ng/mL.

**Q.** And the concentration at 12 h (500 mg, 500 mg QD of Form B, Day 1, 12.0 h, Median)?
**A.** Its concentration at 12 h is 28.3 ng/mL.

**Q.** What about the concentration at 24 h (500 mg, 500 mg QD of Form B, Day 1, […], Mean) of the same compound?
**A.** Its concentration at 24 h is 8.93 ng/mL.

**Q.** And the concentration at 24 h (500 mg, 500 mg QD of Form B, Day 1, […], Median)?
**A.** Its concentration at 24 h is 7.17 ng/mL.

**Q.** And the concentration at 0 h (500 mg, 500 mg QD of Form B, Day 29, 0.0 h, Mean)?
**A.** The concentration at 0 h was 14.4 ng/mL.

**Q.** What about the concentration at 0 h (500 mg, 500 mg QD of Form B, Day 29, 0.0 h, Median) of the same compound?
**A.** The concentration at 0 h was 15.3 ng/mL.

**Q.** What about the concentration at 1 h (500 mg, 500 mg QD of Form B, Day 29, 1.0 h, Mean) of the same compound?
**A.** Its concentration at 1 h is 21.2 ng/mL.

**Q.** What about the concentration at 1 h (500 mg, 500 mg QD of Form B, Day 29, 1.0 h, Median) of the same compound?
**A.** Its concentration at 1 h is 17.6 ng/mL.

**Q.** What about the concentration at 2 h (500 mg, 500 mg QD of Form B, Day 29, 2.0 h, Mean) of the same compound?
**A.** Its concentration at 2 h is 34.2 ng/mL.

**Q.** And the concentration at 2 h (500 mg, 500 mg QD of Form B, Day 29, 2.0 h, Median)?
**A.** Its concentration at 2 h is 33.8 ng/mL.

**Q.** And the concentration at 3 h (500 mg, 500 mg QD of Form B, Day 29, 3.0 h, Mean)?
**A.** The concentration at 3 h was 40.3 ng/mL.

**Q.** What about the concentration at 3 h (500 mg, 500 mg QD of Form B, Day 29, 3.0 h, Median) of the same compound?
**A.** The concentration at 3 h was 41.4 ng/mL.

**Q.** And the concentration at 4 h (500 mg, 500 mg QD of Form B, Day 29, 4.0 h, Mean)?
**A.** Its concentration at 4 h is 41.8 ng/mL.

**Q.** And the concentration at 4 h (500 mg, 500 mg QD of Form B, Day 29, 4.0 h, Median)?
**A.** The concentration at 4 h was 44.9 ng/mL.

**Q.** And the concentration at 6 h (500 mg, 500 mg QD of Form B, Day 29, 6.0 h, Mean)?
**A.** The concentration at 6 h was 41.5 ng/mL.

**Q.** And the concentration at 6 h (500 mg, 500 mg QD of Form B, Day 29, 6.0 h, Median)?
**A.** Its concentration at 6 h is 43.2 ng/mL.

**Q.** What about the concentration at 8 h (500 mg, 500 mg QD of Form B, Day 29, 8.0 h, Mean) of the same compound?
**A.** The concentration at 8 h was 34.1 ng/mL.

**Q.** What about the concentration at 8 h (500 mg, 500 mg QD of Form B, Day 29, 8.0 h, Median) of the same compound?
**A.** The concentration at 8 h was 33.5 ng/mL.

**Q.** And the concentration at 10 h (500 mg, 500 mg QD of Form B, Day 29, 10.0 h, Mean)?
**A.** Its concentration at 10 h is 26.7 ng/mL.

**Q.** What about the concentration at 10 h (500 mg, 500 mg QD of Form B, Day 29, 10.0 h, Median) of the same compound?
**A.** Its concentration at 10 h is 25.6 ng/mL.

**Q.** What about the concentration at 12 h (500 mg, 500 mg QD of Form B, Day 29, 12.0 h, Mean) of the same compound?
**A.** Its concentration at 12 h is 24.4 ng/mL.

**Q.** What about the concentration at 12 h (500 mg, 500 mg QD of Form B, Day 29, 12.0 h, Median) of the same compound?
**A.** Its concentration at 12 h is 25.2 ng/mL.

**Q.** And the concentration at 24 h (500 mg, 500 mg QD of Form B, Day 29, […], Mean)?
**A.** Its concentration at 24 h is 12.5 ng/mL.

**Q.** What about the concentration at 24 h (500 mg, 500 mg QD of Form B, Day 29, […], Median) of the same compound?
**A.** Its concentration at 24 h is 13 ng/mL.

**Q.** What about the concentration at 8 day [1] of the same compound?
**A.** Its concentration at 8 day is 23.5 ng/mL.

**Q.** What about the concentration at 8 day [2] of the same compound?
**A.** Its concentration at 8 day is 17.2 ng/mL.

**Q.** What about the concentration at 15 day [1] of the same compound?
**A.** Its concentration at 15 day is 32.8 ng/mL.

**Q.** What about the concentration at 15 day [2] of the same compound?
**A.** Its concentration at 15 day is 23.9 ng/mL.

**Q.** And the concentration at 22 day [1]?
**A.** The concentration at 22 day was 27.3 ng/mL.

**Q.** And the concentration at 22 day [2]?
**A.** Its concentration at 22 day is 17.7 ng/mL.

**Q.** What about the concentration at 0 h (650 mg, 650 mg QD of Form B, Day 1, 0.0 h, Mean) of the same compound?
**A.** The concentration at 0 h was 0 ng/mL.

**Q.** And the concentration at 0 h (650 mg, 650 mg QD of Form B, Day 1, 0.0 h, Median)?
**A.** The concentration at 0 h was 0 ng/mL.

**Q.** And the concentration at 1 h (650 mg, 650 mg QD of Form B, Day 1, 1.0 h, Mean)?
**A.** The concentration at 1 h was 12.7 ng/mL.

**Q.** And the concentration at 1 h (650 mg, 650 mg QD of Form B, Day 1, 1.0 h, Median)?
**A.** Its concentration at 1 h is 9.68 ng/mL.

**Q.** And the concentration at 2 h (650 mg, 650 mg QD of Form B, Day 1, 2.0 h, Mean)?
**A.** The concentration at 2 h was 24.8 ng/mL.

**Q.** What about the concentration at 2 h (650 mg, 650 mg QD of Form B, Day 1, 2.0 h, Median) of the same compound?
**A.** The concentration at 2 h was 19.1 ng/mL.

**Q.** And the concentration at 3 h (650 mg, 650 mg QD of Form B, Day 1, 3.0 h, Mean)?
**A.** Its concentration at 3 h is 30.9 ng/mL.

**Q.** And the concentration at 3 h (650 mg, 650 mg QD of Form B, Day 1, 3.0 h, Median)?
**A.** Its concentration at 3 h is 31.6 ng/mL.

**Q.** And the concentration at 4 h (650 mg, 650 mg QD of Form B, Day 1, 4.0 h, Mean)?
**A.** Its concentration at 4 h is 43.7 ng/mL.

**Q.** And the concentration at 4 h (650 mg, 650 mg QD of Form B, Day 1, 4.0 h, Median)?
**A.** Its concentration at 4 h is 43.5 ng/mL.

**Q.** And the concentration at 6 h (650 mg, 650 mg QD of Form B, Day 1, 6.0 h, Mean)?
**A.** The concentration at 6 h was 52.7 ng/mL.

**Q.** What about the concentration at 6 h (650 mg, 650 mg QD of Form B, Day 1, 6.0 h, Median) of the same compound?
**A.** Its concentration at 6 h is 49.8 ng/mL.

**Q.** And the concentration at 8 h (650 mg, 650 mg QD of Form B, Day 1, 8.0 h, Mean)?
**A.** The concentration at 8 h was 59.6 ng/mL.
